ChEMBL document CHEMBL4312009, “Multigram scale synthesis of polycyclic lactones and evaluation of antitumor and other biological properties” (Eur J Med Chem, 2020)

Legend:
[1] = system: GTPase KRas (Homo sapiens), P01116 [UNDEFINED MUTATION]; assay: Inhibition of KRas mutant in human HCT116 cells […] assessed as cell viability by measuring ATP at 0.2 uM relative to control; assay type: cell-based
[2] = system: GTPase KRas (Homo sapiens), P01116 [UNDEFINED MUTATION]; assay: Inhibition of KRas mutant in human HCT116 cells assessed as cell viability by measuring ATP at 20 uM relative to control; assay type: cell-based
[3] = system: HeLa; assay: Cell cycle arrest in human HeLa cells assessed as effect on mitotic index incubated for 21 hrs by propidium iodide based flow cytometry; assay type: functional
[4] = system: GTPase KRas (Homo sapiens), P01116 [UNDEFINED MUTATION]; assay: Inhibition of KRas mutant in human SW480 cells assessed as cell viability by measuring ATP at 0.2 uM relative to control; assay type: cell-based
[5] = system: GTPase KRas (Homo sapiens), P01116 [UNDEFINED MUTATION]; assay: Inhibition of KRas mutant in human HCT116 cells […] assessed as cell viability by measuring ATP; assay type: cell-based
[6] = system: HeLa; assay: Cell cycle arrest in human HeLa cells assessed as effect on G1 phase incubated for 21 hrs by propidium iodide based flow cytometry; assay type: functional
[7] = system: GTPase KRas (Homo sapiens), P01116 [UNDEFINED MUTATION]; assay: Inhibition of KRas mutant in human HCT116 cells assessed as cell viability by measuring ATP; assay type: cell-based
[8] = target: Proprotein convertase subtilisin/kexin type 9 (Homo sapiens) (UniProt Q8NBP7); assay: Inhibition of human PCSK9 at 40 uM relative to control
[9] = system: HeLa; assay: Cell cycle arrest in human HeLa cells assessed as effect on S phase incubated for 21 hrs by propidium iodide based flow cytometry; assay type: functional
[10] = system: GTPase KRas (Homo sapiens), P01116 [UNDEFINED MUTATION]; assay: Inhibition of KRas mutant in human SW480 cells assessed as cell viability by measuring ATP at 2 uM relative to control; assay type: cell-based
[11] = system: HeLa; assay: Cell cycle arrest in human HeLa cells assessed as effect on 2N stage incubated for 21 hrs by propidium iodide based flow cytometry; assay type: functional
[12] = system: GTPase KRas (Homo sapiens), P01116 [UNDEFINED MUTATION]; assay: Inhibition of KRas mutant in human HCT116 cells assessed as cell viability by measuring ATP at 2 uM relative to control; assay type: cell-based
[13] = system: HeLa; assay: Cell cycle arrest in human HeLa cells assessed as effect on 4N stage incubated for 21 hrs by propidium iodide based flow cytometry; assay type: functional
[14] = target: Microtubule-associated protein tau (Homo sapiens) (UniProt P10636); assay: Inhibition of human Tau at 40 uM relative to control
[15] = system: CHO; assay: Cytotoxicity against CHO cells assessed as reduction in cell viability; assay type: cell-based; conditions: Cricetulus griseus
[16] = Activation of wnt pathway in mouse C2C12 cells assessed as increase in alkaline phosphatase activity; assay type: cell-based
[17] = system: HT-29; assay: Selectivity index, ratio of IC50 of antiproliferative activity against human HT-29 cells in normoxia to IC50 of antiproliferative activity against human HT-29 cells in hypoxia condition; assay type: functional
[18] = system: GTPase KRas (Homo sapiens), P01116 [UNDEFINED MUTATION]; assay: Inhibition of KRas mutant in human SW480 cells assessed as cell viability by measuring ATP; assay type: cell-based
[19] = Activation of wnt pathway in mouse C2C12 cells assessed as increase in beta-catenin activity; assay type: cell-based
[20] = system: GTPase KRas (Homo sapiens), P01116 [UNDEFINED MUTATION]; assay: Inhibition of KRas mutant in human DLD1 cells assessed as cell viability by measuring ATP; assay type: cell-based
[21] = target: Apolipoprotein C-III (Homo sapiens) (UniProt P02656); assay: Inhibition of human APOC3 at 40 uM relative to control
[22] = system: GTPase KRas (Homo sapiens), P01116 [UNDEFINED MUTATION]; assay: Inhibition of KRas mutant in human SW480 cells assessed as cell viability by measuring ATP at 20 uM relative to control; assay type: cell-based
[23] = system: GTPase KRas (Homo sapiens), P01116 [UNDEFINED MUTATION]; assay: Inhibition of KRas mutant in human DLD1 cells assessed as cell viability by measuring ATP at 2 uM relative to control; assay type: cell-based
[24] = system: HeLa; assay: Cell cycle arrest in human HeLa cells incubated for 21 hrs by propidium iodide based flow cytometry; assay type: functional
[25] = system: GTPase KRas (Homo sapiens), P01116 [UNDEFINED MUTATION]; assay: Inhibition of KRas mutant in human HCT116 cells assessed as cell viability by measuring ATP at 0.2 uM relative to control; assay type: cell-based
[26] = system: GTPase KRas (Homo sapiens), P01116 [UNDEFINED MUTATION]; assay: Inhibition of KRas mutant in human DLD1 cells assessed as cell viability by measuring ATP at 0.2 uM relative to control; assay type: cell-based
[27] = target: Sodium channel protein type 9 subunit alpha (Homo sapiens) (UniProt Q15858); assay: Inhibition of human Nav1.7 at 40 uM relative to control
[28] = system: HT-29; assay: Antiproliferative activity against human HT-29 cells assessed as reduction in cell viability incubated for 24 hrs in hypoxia condition by MTT assay; assay type: functional, cell-based; conditions: HT-29, 24 h
[29] = system: GTPase KRas (Homo sapiens), P01116 [UNDEFINED MUTATION]; assay: Inhibition of KRas mutant in human HCT116 cells […] assessed as cell viability by measuring ATP at 2 uM relative to control; assay type: cell-based
[30] = system: GTPase KRas (Homo sapiens), P01116 [UNDEFINED MUTATION]; assay: Inhibition of KRas mutant in human DLD1 cells assessed as cell viability by measuring ATP at 20 uM relative to control; assay type: cell-based
[31] = system: HT-29; assay: Antiproliferative activity against human HT-29 cells assessed as reduction in cell viability incubated for 24 hrs by MTT assay; assay type: functional, cell-based; conditions: HT-29, 24 h
[32] = target: T1, Angiopoietin-like protein 8 (Homo sapiens) (UniProt Q6UXH0); assay: Inhibition of human Angptl8 at 40 uM relative to control
T1 sequence (whole entry): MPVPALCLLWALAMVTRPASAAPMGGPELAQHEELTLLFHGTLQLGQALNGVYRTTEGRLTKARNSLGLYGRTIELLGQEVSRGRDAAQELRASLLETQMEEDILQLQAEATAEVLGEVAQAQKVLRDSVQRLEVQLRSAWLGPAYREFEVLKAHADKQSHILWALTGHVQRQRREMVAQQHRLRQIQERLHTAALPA

[33] = system: GTPase KRas (Homo sapiens), P01116 [UNDEFINED MUTATION]; assay: Inhibition of KRas mutant in human HCT116 cells […] assessed as cell viability by measuring ATP at 20 uM relative to control; assay type: cell-based
[34] = system: CYP1A1; assay: Selectivity index, ratio of IC50 of cytotoxicity against CHO cells to IC50 for bioactivation in CYP1A1 (unknown origin) transfected CHO cells assessed as CYP1A1-mediated drug activation by measuring reduction in cell viability; assay type: cell-based; conditions: hamster, CHO cells and CYP1A1-transfected CHO cells; read-out: Ratio IC50

Chain of GTPase KRas (Homo sapiens), P01116 [UNDEFINED MUTATION] (P01116 whole entry, looked up, change not shown): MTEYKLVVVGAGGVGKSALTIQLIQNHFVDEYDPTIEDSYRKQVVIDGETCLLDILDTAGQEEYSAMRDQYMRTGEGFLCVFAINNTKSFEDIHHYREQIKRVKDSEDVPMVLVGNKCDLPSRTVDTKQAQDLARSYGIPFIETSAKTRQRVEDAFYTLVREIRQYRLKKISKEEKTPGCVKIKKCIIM
Chain of Proprotein convertase subtilisin/kexin type 9 (Homo sapiens) (Q8NBP7 31-152 limits assumed): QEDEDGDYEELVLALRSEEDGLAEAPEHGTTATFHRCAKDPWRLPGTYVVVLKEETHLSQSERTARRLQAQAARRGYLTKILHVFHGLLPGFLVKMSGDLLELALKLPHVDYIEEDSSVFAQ
Chain of Proprotein convertase subtilisin/kexin type 9 (Homo sapiens) (Q8NBP7 153-692 limits assumed): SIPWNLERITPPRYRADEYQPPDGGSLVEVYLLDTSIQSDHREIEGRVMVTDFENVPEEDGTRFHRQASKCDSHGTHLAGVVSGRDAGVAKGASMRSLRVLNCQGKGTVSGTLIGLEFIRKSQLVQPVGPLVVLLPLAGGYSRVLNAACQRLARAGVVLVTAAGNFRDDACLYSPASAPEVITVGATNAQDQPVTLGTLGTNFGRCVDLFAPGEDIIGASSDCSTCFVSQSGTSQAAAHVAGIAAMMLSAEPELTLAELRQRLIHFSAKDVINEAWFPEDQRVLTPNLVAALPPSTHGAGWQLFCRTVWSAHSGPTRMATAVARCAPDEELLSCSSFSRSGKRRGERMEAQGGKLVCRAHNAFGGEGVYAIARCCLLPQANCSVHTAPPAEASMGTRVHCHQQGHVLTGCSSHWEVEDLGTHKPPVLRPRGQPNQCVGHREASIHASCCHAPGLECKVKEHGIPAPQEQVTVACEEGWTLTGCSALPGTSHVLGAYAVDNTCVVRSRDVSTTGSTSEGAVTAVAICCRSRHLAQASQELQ
Chain of Sodium channel protein type 9 subunit alpha (Homo sapiens) (Q15858 whole entry, looked up): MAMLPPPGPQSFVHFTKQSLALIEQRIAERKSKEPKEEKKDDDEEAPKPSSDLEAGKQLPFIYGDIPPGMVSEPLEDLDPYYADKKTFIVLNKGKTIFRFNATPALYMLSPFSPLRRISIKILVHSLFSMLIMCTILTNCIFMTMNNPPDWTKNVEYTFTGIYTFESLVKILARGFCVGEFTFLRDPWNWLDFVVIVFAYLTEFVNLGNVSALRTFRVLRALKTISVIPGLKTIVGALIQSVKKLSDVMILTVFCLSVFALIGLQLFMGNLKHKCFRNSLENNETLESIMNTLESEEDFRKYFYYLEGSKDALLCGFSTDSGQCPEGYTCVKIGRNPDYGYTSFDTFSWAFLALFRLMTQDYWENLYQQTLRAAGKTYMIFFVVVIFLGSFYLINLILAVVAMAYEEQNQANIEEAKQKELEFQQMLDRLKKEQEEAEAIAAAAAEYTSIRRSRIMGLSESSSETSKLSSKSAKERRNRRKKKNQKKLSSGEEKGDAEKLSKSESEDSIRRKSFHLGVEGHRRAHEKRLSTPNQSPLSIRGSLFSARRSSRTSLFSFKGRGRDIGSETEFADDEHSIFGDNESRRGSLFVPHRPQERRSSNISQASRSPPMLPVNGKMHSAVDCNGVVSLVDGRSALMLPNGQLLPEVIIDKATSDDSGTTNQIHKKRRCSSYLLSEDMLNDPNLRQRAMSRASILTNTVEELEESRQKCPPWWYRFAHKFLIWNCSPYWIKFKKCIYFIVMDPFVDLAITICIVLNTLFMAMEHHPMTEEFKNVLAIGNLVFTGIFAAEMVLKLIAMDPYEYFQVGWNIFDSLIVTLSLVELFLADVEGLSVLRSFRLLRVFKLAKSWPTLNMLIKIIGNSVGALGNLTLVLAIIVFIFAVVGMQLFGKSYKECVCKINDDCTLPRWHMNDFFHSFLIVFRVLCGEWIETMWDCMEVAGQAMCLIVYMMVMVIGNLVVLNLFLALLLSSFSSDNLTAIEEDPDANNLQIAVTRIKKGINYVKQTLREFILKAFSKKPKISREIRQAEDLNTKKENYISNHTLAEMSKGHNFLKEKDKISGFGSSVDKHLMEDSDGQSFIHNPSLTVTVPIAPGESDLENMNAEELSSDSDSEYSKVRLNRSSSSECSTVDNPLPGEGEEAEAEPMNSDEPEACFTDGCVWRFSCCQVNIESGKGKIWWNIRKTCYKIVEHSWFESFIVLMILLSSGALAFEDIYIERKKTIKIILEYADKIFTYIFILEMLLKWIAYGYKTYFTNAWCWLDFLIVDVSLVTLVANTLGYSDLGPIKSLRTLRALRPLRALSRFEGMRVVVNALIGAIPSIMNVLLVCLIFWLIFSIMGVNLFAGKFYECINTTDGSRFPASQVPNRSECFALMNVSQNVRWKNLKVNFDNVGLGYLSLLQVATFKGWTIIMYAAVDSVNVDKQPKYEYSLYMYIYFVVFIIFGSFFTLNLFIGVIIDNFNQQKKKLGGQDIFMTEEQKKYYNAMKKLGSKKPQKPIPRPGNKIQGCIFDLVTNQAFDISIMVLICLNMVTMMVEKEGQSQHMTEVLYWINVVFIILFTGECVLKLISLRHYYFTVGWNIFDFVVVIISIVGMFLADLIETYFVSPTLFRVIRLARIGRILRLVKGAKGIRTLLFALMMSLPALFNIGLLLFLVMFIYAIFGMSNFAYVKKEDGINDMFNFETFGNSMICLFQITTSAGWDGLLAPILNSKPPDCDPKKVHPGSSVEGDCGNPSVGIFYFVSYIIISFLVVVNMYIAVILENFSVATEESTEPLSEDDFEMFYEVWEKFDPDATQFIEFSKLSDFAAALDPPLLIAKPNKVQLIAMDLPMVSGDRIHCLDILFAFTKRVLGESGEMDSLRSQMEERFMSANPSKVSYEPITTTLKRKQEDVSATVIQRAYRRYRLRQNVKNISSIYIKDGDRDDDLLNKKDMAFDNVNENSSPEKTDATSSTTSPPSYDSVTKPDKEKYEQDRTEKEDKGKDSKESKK
Chain of Microtubule-associated protein tau (Homo sapiens) (P10636 whole entry): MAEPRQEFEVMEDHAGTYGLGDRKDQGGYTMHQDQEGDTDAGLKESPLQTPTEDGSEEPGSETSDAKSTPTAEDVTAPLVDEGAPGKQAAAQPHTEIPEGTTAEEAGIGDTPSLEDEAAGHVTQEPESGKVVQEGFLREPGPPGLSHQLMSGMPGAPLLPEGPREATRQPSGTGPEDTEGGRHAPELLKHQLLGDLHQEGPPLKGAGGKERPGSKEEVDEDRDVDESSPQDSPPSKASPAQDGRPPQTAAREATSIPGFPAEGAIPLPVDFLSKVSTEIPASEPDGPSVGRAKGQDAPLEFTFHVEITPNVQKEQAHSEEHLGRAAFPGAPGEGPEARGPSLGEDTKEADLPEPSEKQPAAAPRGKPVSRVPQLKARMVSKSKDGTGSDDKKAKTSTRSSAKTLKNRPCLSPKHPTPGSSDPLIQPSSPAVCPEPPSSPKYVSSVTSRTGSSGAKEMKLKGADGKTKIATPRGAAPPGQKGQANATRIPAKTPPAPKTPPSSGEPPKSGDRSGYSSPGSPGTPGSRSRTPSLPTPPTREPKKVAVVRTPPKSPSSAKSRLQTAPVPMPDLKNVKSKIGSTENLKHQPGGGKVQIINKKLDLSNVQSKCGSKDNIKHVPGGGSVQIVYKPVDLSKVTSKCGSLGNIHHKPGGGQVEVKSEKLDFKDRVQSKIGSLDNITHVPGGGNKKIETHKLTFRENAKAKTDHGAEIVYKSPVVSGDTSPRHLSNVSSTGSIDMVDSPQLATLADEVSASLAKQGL
Chain of Apolipoprotein C-III (Homo sapiens) (P02656 whole entry): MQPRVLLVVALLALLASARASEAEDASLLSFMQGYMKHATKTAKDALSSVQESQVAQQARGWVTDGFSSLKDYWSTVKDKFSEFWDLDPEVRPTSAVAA

EC50 [3]: 2100 nM | EC50 [6]: > 10000 nM | inhibition [8]: 95% | IC50 [9]: > 10000 nM | IC50 [11]: 2200 nM | EC50 [13]: 2000 nM | inhibition [14]: 92% | EC50 [16]: 6700 nM | EC50 [19]: > 20000 nM | inhibition [21]: 89% | IC50 [24]: 1700 nM | inhibition [27]: 76% | IC50 [28]: 7330 nM | IC50 [31]: 1730 nM | inhibition [32]: 93%
Compound: CCCCc1c2c(c(C)c3c1C(=O)OC3)Oc1ccccc1O2
inhibition [1]: 67% | inhibition [2]: 78% | inhibition [4]: 17% | inhibition [5]: Dose-dependent effect | inhibition [7]: Dose-dependent effect | inhibition [10]: 73% | inhibition [12]: 66% | IC50 [15]: 1480 nM | Ratio IC50 [17]: 0.24 | inhibition [18]: Dose-dependent effect | inhibition [20]: Dose-dependent effect | inhibition [22]: 138% | inhibition [23]: 65% | inhibition [25]: 5% | inhibition [26]: 17% | inhibition [29]: 63% | inhibition [30]: 91% | inhibition [33]: 80% | selectivity ratio [34]: 3.7
